Tests used:
C. elegans = experiment: Efficacy against nematodes (C. elegans motility rating); parameters: key: 0: no effect; 7: reduced movement in 24 h; 8: dead in 24 h; 9: dead in 4 h; conditions: observations at 4 h and 24 h postimmersion
Procedure, shortened: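 Mixed-stage C. elegans (~50 per well, L1 to adult) in M9 buffer exposed to test compound at 100 ppm, 150 ppm or 200 μM final. Motility of larvae and adults scored under dissecting microscope at 4 h and 24 h.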

[1] = test system: Trichostrongylus columbriformis; experiment: In vivo efficacy against T. colubriformis in infected gerbils; conditions: gerbils infected with T. colubriformis; single oral dose of 50 mg/kg by gavage; worm counts four days post-treatment; % mortality as compared to negative control
Procedure: In Vivo Evaluation of the Efficacy of Test Compounds Against T. colubriformis
In this evaluation, gerbils are infected with Trichostrongylus columbriformis infective larvae at a concentration of approximately 800 L3/mL. Larvae for gerbil infections are cultured from feces from sheep previously infected with T. colubriformis. One week post infection, test compounds are administered by gavage as a single oral dose of 50 mg/kg of body weight. For each group of 3 gerbils, 10 mg of test compound are dissolved in 2 mL of PEG 400:DMSO (1:2 v/v) and each animal is administered the test solution at a rate of 0.1 mL/10 g of body weight. […] All animals are observed daily for morbidity and mortality. Four days post-treatment, all animals are weighed and necropsied. Worm counts are conducted with the use of stereoscopes and counters.

SMILES	Rating (C. elegans; dose 150 ppm)	Mortality [1] [%]	Rating (C. elegans; dose 100 ppm)
Cc1ccccc1C1=C(O)C(=Cc2ccc(-c3ccccc3C)cc2)OC1=O	8	21.30	
Cc1cc(/C=C2\OC(=O)C(c3cccc(Cl)c3)=C2O)ccc1-c1ccccc1C(F)(F)F		11.20	
Cc1cc(/C=C2\OC(=O)C(c3cccc(Cl)c3)=C2O)ccc1-c1ccccc1Cl		16.90	
COc1ccccc1-c1ccc(C=C2OC(=O)C(c3cccc(Cl)c3)=C2O)cc1C		0.00	
COc1cc(/C=C2\OC(=O)C(c3cccc(Cl)c3)=C2O)ccc1-c1ccccc1Cl		0.00	
Cc1ccccc1-c1ccc(C=C2OC(=O)C(c3cccc(Cl)c3)=C2O)cc1C	9	10.80	
Cc1ccc(C2=C(O)/C(=C/c3cccc(C(F)(F)F)c3Cl)OC2=O)cc1C		36.50	
O=C1O/C(=C\c2ccc(-c3ccc(Cl)c(Cl)c3)cc2)C(O)=C1c1ccc(Cl)c(Cl)c1	9	22.00	
CCc1ccc(C2=C(O)C(=Cc3cc(C(F)(F)F)ccc3Cl)OC2=O)cc1		39.00	
C=CCOC1=C(c2ccc(Cl)cc2)C(=O)OC1=Cc1ccc(C#N)cc1 (mixture of isomers)		0.00	0
N#Cc1ccc(-c2ccc(C=C3OC(=O)C(c4cccc(C(F)(F)F)c4)=C3O)cc2)cc1 (mixture of isomers)		47.50	9
O=C1OC(=Cc2ccc(-c3ccc(Cl)cc3)cc2)C(O)=C1c1cccc(C(F)(F)F)c1 (mixture of isomers)		31.30	9
N#Cc1cccc(C2=C(O)C(=Cc3ccc(-c4ccc(Cl)cc4)cc3)OC2=O)c1 (mixture of isomers)		0.00	9
N#Cc1ccc(-c2ccc(C=C3OC(=O)C(c4cccc(Cl)c4)=C3O)cc2)cc1 (mixture of isomers)		32.00	9
O=C1OC(=Cc2ccc(-c3ccc(Cl)cc3)cc2)C(O)=C1c1cccc(Cl)c1 (mixture of isomers)		37.60	9
N#Cc1ccc(-c2ccc(C=C3OC(=O)C(c4ccc(C(F)(F)F)cc4)=C3O)cc2)cc1 (mixture of isomers)		91.50	9
N#Cc1ccc(C2=C(O)C(=Cc3ccc4c(c3)OC(F)(F)O4)OC2=O)cc1 (mixture of isomers)		88.10	9
N#Cc1ccc(C2=C(O)C(=Cc3ccc(Cl)s3)OC2=O)cc1 (mixture of isomers)		20.60	9
O=C1OC(=Cc2ccc(-c3ccc(C(F)(F)F)cc3)cc2)C(O)=C1c1ccc(Cl)cc1 (mixture of isomers)		0.00	9
N#Cc1ccc(-c2ccc(C=C3OC(=O)C(c4ccc(F)cc4)=C3O)cc2)cc1 (mixture of isomers)		31.80	9
O=C1OC(=Cc2ccc(-c3ccc(Cl)cc3)cc2)C(O)=C1c1ccc(F)cc1 (mixture of isomers)		1.60	9
O=C1OC(=Cc2ncccc2Br)C(O)=C1c1ccc(OC(F)(F)F)cc1 (mixture of isomers)		26.90	0
O=C1OC(=Cc2cnccc2Br)C(O)=C1c1ccc(OC(F)(F)F)cc1 (mixture of isomers)		12.80	9

SMILES	Rating (C. elegans; dose 150 ppm)	Mortality [1] [%]	Rating (C. elegans; dose 100 ppm)
O=C1OC(=Cc2cnccc2-c2cccc(Cl)c2)C(O)=C1c1ccc(OC(F)(F)F)cc1 (mixture of isomers)		66.80	
O=C1OC(=Cc2cnccc2-c2ccc(Cl)cc2)C(O)=C1c1ccc(OC(F)(F)F)cc1 (mixture of isomers)		84.60	
O=C1OC(=Cc2cnccc2-c2ccc(F)cc2)C(O)=C1c1ccc(OC(F)(F)F)cc1 (mixture of isomers)		12.80	9
O=C1OC(=Cc2cnccc2-c2ccc(OC(F)(F)F)cc2)C(O)=C1c1ccc(OC(F)(F)F)cc1 (mixture of isomers)		82.60	
O=C1OC(=Cc2cnccc2-c2ccc(Cl)s2)C(O)=C1c1ccc(OC(F)(F)F)cc1 (mixture of isomers)		88.50	
O=C1OC(=Cc2cnccc2-c2cccs2)C(O)=C1c1ccc(OC(F)(F)F)cc1 (mixture of isomers)		12.80	9
CCCOc1ccc(C=C2OC(=O)C(c3ccc(OC(F)(F)F)cc3)=C2O)cc1 (mixture of isomers)		10.40	
O=C1OC(=Cc2ccc(Cl)s2)C(O)=C1c1ccc(OC(F)(F)F)cc1 (mixture of isomers)		26.10	9
N#Cc1ccc(C=C2OC(=O)C(c3ccc(-c4ccc(C#N)cc4)cc3)=C2O)cc1 (mixture of isomers)		29.80	9
N#Cc1ccc(-c2ccc(C3=C(O)C(=Cc4ccc(Cl)cc4)OC3=O)cc2)cc1 (mixture of isomers)		13.10	9
O=C1OC(=Cc2ccc(C(F)(F)F)cc2)C(O)=C1c1ccc(-c2ccc(Cl)cc2)cc1 (mixture of isomers)		21.30	9
N#Cc1ccc(C=C2OC(=O)C(c3ccc(-c4ccc(Cl)cc4)cc3)=C2O)cc1 (mixture of isomers)		0.00	9
O=C1OC(=Cc2ccc(Cl)cc2)C(O)=C1c1ccc(-c2ccc(Cl)cc2)cc1 (mixture of isomers)		0.00	9
COC1=C(c2ccc(Cl)cc2)C(=O)OC1=Cc1ccc(C#N)cc1 (mixture of isomers) [R=CH3; R1=4-Cl—C6H4**; R2=4-CN—C6H4]		0.00	0
O=C1OC(=Cc2ccc(C(F)(F)F)cc2)C(O)=C1c1cccc(C(F)(F)F)c1 (mixture of isomers) [R=H; R1=3-CF3—C6H4**; R2=4-CF3—C6H4]		0.00	9
N#Cc1ccc(C=C2OC(=O)C(c3cccc(C(F)(F)F)c3)=C2O)cc1 (mixture of isomers) [R=H; R1=3-CF3—C6H4**; R2=4-CN—C6H4]		0.00	9
O=C1O/C(=C\c2ccccc2)C(O)=C1c1ccccc1C(F)(F)F [R=H; R1=2-CF3—C6H4; R2=C6H5]		34.60	
O=C1O/C(=C\c2ccc(-c3ccccc3F)cc2)C(O)=C1c1ccccc1F [R=H; R1=2-F—C6H4; R2=4-(2′F-biphenyl)]		12.40	
O=C1O/C(=C\c2cc(C(F)(F)F)ccc2F)C(O)=C1c1cccc(-c2ccccc2)c1 [R=H; R1=3-biphenyl; R2=2-F-5-CF3—C6H4]		38.40	
O=C1O/C(=C\c2cc(F)cc(C(F)(F)F)c2)C(O)=C1c1cccc(-c2ccccc2)c1 [R=H; R1=3-biphenyl; R2=3-F-5-CF3—C6H4]		0.00	
O=C1O/C(=C\c2ccc(Cl)cc2)C(O)=C1c1ccc(-c2ccccc2)c(F)c1 [R=H; R1=4-(3-F-biphenyl); R2=4-CI-C6H4]		22.00	
O=C1O/C(=C\c2cccc(Cl)c2)C(O)=C1c1ccc(Cl)cc1 [R=H; R1=4-Cl—C6H4; R2=3-CI-C6H4]		25.40	
O=C1O/C(=C\c2cc(C(F)(F)F)ccc2Cl)C(O)=C1c1ccc(-c2ccccc2)cc1 [R=H; R1=4-biphenyl; R2=2-Cl—5-CF3—C6H4]		38.40	

Reference: US7495027B2, “3-aryl-4-hydroxyfuranone compounds and the human and animal health use thereof” (Wyeth, priority 2003, dated 2009)
